Reference: patent US20230357272A1, “OCTAHYDROPYRAZINODIAZANAPHTHYRIDINE DIONE COMPOUNDS” (MEDSHINE DISCOVERY INC., priority 2020, published 2023)

Assays:
[1] = test system: MIA-PA-CA-2 cells; test: Anti-proliferation experiment of MIA-PA-CA-2 cells (CellTiter-Glo); format: cell-based; details: Homo sapiens, MIA PaCa-2, 72 h, 3 days
Experimental: DMEM culture medium, fetal bovine serum purchased from Biosera, and horse serum purchased from Gibco. CellTiter-Glo (chemiluminescence detection reagent for cell viability) reagent purchased from Promega. MIA-PA-CA-2 cell line purchased from Nanjing CoBioer Biotechnology Co., Ltd. EnVision multi-label analyzer (PerkinElmer).
MIA-PA-CA-2 cells were seeded in a white 96-well plate with 80 μL of cell suspension per well, which contained 1000 MIA-PA-CA-2 cells. The cell plate was incubated overnight in a carbon dioxide incubator.
(§1) The compounds to be tested were diluted 5-fold with a row gun to the eighth concentration, that is, from 2 mM to 26 nM, and a double-duplication experiment was set up. 78 μL of culture medium was added to a middle plate, and then 2 μL of gradient diluted compound per well was transferred to the middle plate according to the corresponding position. After being thoroughly mixed, 20 μL per well was transferred to the cell plate. The concentration range of the compound transferred to the cell plate was 10 μM to 0.13 nM. The cell plate was placed in the carbon dioxide incubator for 3 days. Another cell plate was prepared, and the signal value was read as the maximum value (Max value in the equation below) on the day of administration to participate in data analysis. 25 μL of cell viability chemiluminescence detection reagent was added to each well of the cell plate, and incubated at room temperature for 10 minutes to stabilize the luminescence signal. A multi-label analyzer was used for reading.
Using the equation (Sample−Min)/(Max−Min)*100% to convert the raw data into inhibition rate, and the value of IC50 might be obtained by curve fitting with four parameters (obtained by “log (inhibitor)/response—Variable scope” mode in GraphPad Prism software). Table 2 provides the inhibitory activity of the compounds of the present disclosure on the proliferation of MIA-PA-CA-2 cells.

[2] = test system: NCI-H358 cells; test: Anti-proliferation experiment of H358 cells (CellTiter-Glo); format: cell-based; details: Homo sapiens, 120 h, 5 days
Experimental: RPMI-1640 culture medium, penicillin/streptomycin antibiotics purchased from Wisent, and fetal bovine serum purchased from Biosera. CellTiter-Glo (chemiluminescence detection reagent for cell viability) reagent purchased from Promega. NCI-H358 cell line purchased from the Cell Bank of the Chinese Academy of Sciences. Nivo multi-label analyzer (PerkinElmer).
NCI-H358 cells were seeded in a white 96-well plate with 80 μL of cell suspension per well, which contained 4000 NCI-H358 cells. The cell plate was incubated overnight in a carbon dioxide incubator.
as §1, with “3-fold” for “5-fold”, “ninth” for “eighth”, “304” for “26”, “1.52” for “0.13”, “5” for “3”
25 μL of cell viability chemiluminescence detection reagent was added to each well of the cell plate, and incubated at room temperature for 10 minutes to stabilize the luminescence signal. A multi-label analyzer was used for reading.
Using the equation (Sample−Min)/(Max−Min)*100% to convert the raw data into inhibition rate, and the value of IC50 might be obtained by curve fitting with four parameters (obtained by “log (inhibitor) vs. response—Variable slope” mode in GraphPad Prism). Table 1 provides the inhibitory activity of the compounds of the present disclosure on the proliferation of NCI-H358 cells.

Row | IC50 [1] | IC50 [2] | Compound
1 | 4 nM | 2 nM | C=CC(=O)N1CCN2c3c(c(=O)n(-c4c(CC)cncc4CC)c4c(=O)n(-c5c(N)c(Cl)cc(Cl)c5F)c(C(F)(F)F)cc34)OCC[C@H]2C1 [Compound 6]
2 | 1 nM | 0.9 nM | C=CC(=O)N1CCN2c3c(c(=O)n(-c4c(C(C)C)ncnc4C(C)C)c4c(=O)n(-c5c(N)c(Cl)cc(Cl)c5F)c(C(F)(F)F)cc34)OCC[C@H]2C1 [Compound 4]
3 | 5 nM | 4 nM | C=CC(=O)N1CCN2c3c(c(=O)n(-c4c(CC)ncnc4CC)c4c(=O)n(-c5c(N)c(Cl)cc(Cl)c5F)c(C(F)(F)F)cc34)OCC[C@H]2C1 [Compound 5]
